# Results published in US10597388B2, “Pyridazinone herbicides” (FMC CORPORATION, priority 2014, dated 2020).
# Key:
# Experiment in all cases: Test E greenhouse herbicide test, pre- and postemergence
# Assay type in all cases: in vivo
# [1] = system: barnyardgrass (Echinochloa crus-galli)
# Summary of the method: (§1)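 Seeds were sown in silt loam and sprayed preemergence with compound in a non-phytotoxic solvent mix containing surfactant; for postemergence, plants at 2 to 18 cm (1- to 4-leaf stage) in peat-based potting medium were sprayed with the same formulation. After 14 to 21 d in a greenhouse, injury was rated visually against controls (0–100).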
# [2] = system: beggarticks (hairy beggarticks, Bidens pilosa)
# Summary of the method: as §1
# [3] = system: corn (Zea mays)
# Summary of the method: as §1
# [4] = system: dayflower (Virginia (VA) dayflower, Commelina virginica)
# Summary of the method: as §1
# [5] = system: foxtail, giant (giant foxtail, Setaria faberii); conditions: Preemergence
# Summary of the method: as §1
# [6] = system: foxtail, green (green foxtail, Setaria viridis); conditions: Preemergence
# Summary of the method: as §1
# [7] = system: johnsongrass (Sorghum halepense); conditions: Preemergence
# Summary of the method: as §1
# [8] = system: lambsquarters (Chenopodium album); conditions: Preemergence
# Summary of the method: as §1
# [9] = system: nutsedge, yellow (yellow nutsedge, Cyperus esculentus); conditions: Preemergence
# Summary of the method: as §1
# [10] = system: panicum, fall (fall panicum, Panicum dichotomiflorum)
# Summary of the method: as §1
# [11] = system: pigweed, palmer (palmer pigweed, Amaranthus palmeri)
# Summary of the method: as §1
# [12] = system: ragweed (common ragweed, Ambrosia elatior); conditions: Preemergence
# Summary of the method: as §1
# [13] = system: sandbur (southem sandbur, Cenchrus echinatus)
# Summary of the method: as §1
# [14] = system: soybean (Glycine max)
# Summary of the method: as §1
# [15] = system: velvetleaf (Abutilon theophrasti); conditions: Preemergence
# Summary of the method: as §1
# [16] = 62 g ai/ha, Postemergence, scale 0 to 100 (0 no effect, 100 complete control)
# [17] = 62 g ai/ha, Preemergence, scale 0 to 100 (0 no effect, 100 complete control)
# [18] = 125 g ai/ha, Postemergence, scale 0 to 100 (0 no effect, 100 complete control)
# [19] = 250 g ai/ha, Postemergence, scale 0 to 100 (0 no effect, 100 complete control)
# [20] = Postemergence, 16 g ai/ha, visual, scale 0 no effect to 100 complete control
# [21] = Postemergence, 31 g ai/ha, visual, scale 0 no effect to 100 complete control
# [22] = Preemergence, 16 g ai/ha, scale 0 to 100, 0 no effect, 100 complete control
# [23] = Preemergence, 31 g ai/ha, scale 0 to 100, 0 no effect, 100 complete control
# [24] = Preemergence, 125 g ai/ha, visual, scale 0 no effect to 100 complete control
# [25] = Preemergence, 250 g ai/ha, visual, scale 0 no effect to 100 complete control
# [26] = 62 g ai/ha, scale 0 to 100 (0 no effect, 100 complete control)
# [27] = 16 g ai/ha, scale 0 to 100, 0 no effect, 100 complete control
# [28] = 31 g ai/ha, scale 0 to 100, 0 no effect, 100 complete control
# [29] = 125 g ai/ha, visual, scale 0 no effect to 100 complete control
# [30] = 250 g ai/ha, visual, scale 0 no effect to 100 complete control
# [31] = 125 g ai/ha, scale 0 to 100 (0 no effect, 100 complete control)
# [32] = 125 g ai/ha, Preemergence, scale 0 to 100 (0 no effect, 100 complete control)
smiles,measurement,setting,value
"Cc1cc(C)c2sc(C)c(-c3c(O)c(C)nn(C)c3=O)c2c1 [Compound 2, 5-hydroxy-2,6-dimethyl-4-(2,5,7-trimethylbenzo[b]thien-3-yl)-3(2H)-pyridazinone]","Plant response rating, Barnyardgrass",[1]; [16],25
same,"Plant response rating, Barnyardgrass",[1]; [17],0
same,"Plant response rating, Barnyardgrass",[1]; [18],30
same,"Plant response rating, Barnyardgrass",[1]; [19],35
same,"Plant response rating, Barnyardgrass",[1]; [20],20
same,"Plant response rating, Barnyardgrass",[1]; [21],20
same,"Plant response rating, Barnyardgrass",[1]; [22],0
same,"Plant response rating, Barnyardgrass",[1]; [23],0
same,"Plant response rating, Barnyardgrass",[1]; [24],25
same,"Plant response rating, Barnyardgrass",[1]; [25],70
same,"Plant response rating, Beggarticks",[2]; [16],100
same,"Plant response rating, Beggarticks",[2]; [17],100
same,"Plant response rating, Beggarticks",[2]; [18],100
same,"Plant response rating, Beggarticks",[2]; [19],100
same,"Plant response rating, Beggarticks",[2]; [20],85
same,"Plant response rating, Beggarticks",[2]; [21],95
same,"Plant response rating, Beggarticks",[2]; [22],90
same,"Plant response rating, Beggarticks",[2]; [23],100
same,"Plant response rating, Beggarticks",[2]; [24],100
same,"Plant response rating, Beggarticks",[2]; [25],100
same,"Plant response rating, Corn",[3]; [16],0
same,"Plant response rating, Corn",[3]; [17],0
same,"Plant response rating, Corn",[3]; [18],5
same,"Plant response rating, Corn",[3]; [19],5
same,"Plant response rating, Corn",[3]; [20],0
same,"Plant response rating, Corn",[3]; [21],0
same,"Plant response rating, Corn",[3]; [22],0
same,"Plant response rating, Corn",[3]; [23],0
same,"Plant response rating, Corn",[3]; [24],0
same,"Plant response rating, Corn",[3]; [25],0
same,"Plant response rating, Dayflower, VA",[4]; [16],15
same,"Plant response rating, Dayflower, VA",[4]; [17],20
same,"Plant response rating, Dayflower, VA",[4]; [18],65
same,"Plant response rating, Dayflower, VA",[4]; [19],65
same,"Plant response rating, Dayflower, VA",[4]; [20],0
same,"Plant response rating, Dayflower, VA",[4]; [21],20
same,"Plant response rating, Dayflower, VA",[4]; [22],0
same,"Plant response rating, Dayflower, VA",[4]; [23],15
same,"Plant response rating, Dayflower, VA",[4]; [24],25
same,"Plant response rating, Dayflower, VA",[4]; [25],90
same,"Plant response rating, Foxtail, Giant",[5]; [26],95
same,"Plant response rating, Foxtail, Giant",[5]; [27],40
same,"Plant response rating, Foxtail, Giant",[5]; [28],75
same,"Plant response rating, Foxtail, Giant",[5]; [29],98
same,"Plant response rating, Foxtail, Giant",[5]; [30],98
same,"Plant response rating, Foxtail, Green",[6]; [26],95
same,"Plant response rating, Foxtail, Green",[6]; [27],0
same,"Plant response rating, Foxtail, Green",[6]; [28],35
same,"Plant response rating, Foxtail, Green",[6]; [29],95
same,"Plant response rating, Foxtail, Green",[6]; [30],98
same,"Plant response rating, Johnsongrass",[7]; [26],20
same,"Plant response rating, Johnsongrass",[7]; [27],0
same,"Plant response rating, Johnsongrass",[7]; [28],35
same,"Plant response rating, Johnsongrass",[7]; [29],35
same,"Plant response rating, Johnsongrass",[7]; [30],50
same,"Plant response rating, Lambsquarters",[8]; [26],98
same,"Plant response rating, Lambsquarters",[8]; [27],50
same,"Plant response rating, Lambsquarters",[8]; [28],100
same,"Plant response rating, Lambsquarters",[8]; [29],98
same,"Plant response rating, Lambsquarters",[8]; [30],100
same,"Plant response rating, Nutsedge, Yellow",[9]; [26],35
same,"Plant response rating, Nutsedge, Yellow",[9]; [31],65
same,"Plant response rating, Nutsedge, Yellow",[9]; [27],0
same,"Plant response rating, Nutsedge, Yellow",[9]; [28],0
same,"Plant response rating, Nutsedge, Yellow",[9]; [30],70
same,"Plant response rating, Panicum, Fall",[10]; [16],70
same,"Plant response rating, Panicum, Fall",[10]; [17],95
same,"Plant response rating, Panicum, Fall",[10]; [18],85
same,"Plant response rating, Panicum, Fall",[10]; [32],98
same,"Plant response rating, Panicum, Fall",[10]; [19],90
same,"Plant response rating, Panicum, Fall",[10]; [20],60
same,"Plant response rating, Panicum, Fall",[10]; [21],70
same,"Plant response rating, Panicum, Fall",[10]; [22],75
same,"Plant response rating, Panicum, Fall",[10]; [23],85
same,"Plant response rating, Panicum, Fall",[10]; [25],100
same,"Plant response rating, Pigweed, Palmer",[11]; [16],5
same,"Plant response rating, Pigweed, Palmer",[11]; [17],50
same,"Plant response rating, Pigweed, Palmer",[11]; [18],5
same,"Plant response rating, Pigweed, Palmer",[11]; [32],90
same,"Plant response rating, Pigweed, Palmer",[11]; [19],35
same,"Plant response rating, Pigweed, Palmer",[11]; [20],0
same,"Plant response rating, Pigweed, Palmer",[11]; [21],50
same,"Plant response rating, Pigweed, Palmer",[11]; [22],0
same,"Plant response rating, Pigweed, Palmer",[11]; [23],20
same,"Plant response rating, Pigweed, Palmer",[11]; [25],100
same,"Plant response rating, Ragweed",[12]; [26],75
same,"Plant response rating, Ragweed",[12]; [31],98
same,"Plant response rating, Ragweed",[12]; [27],20
same,"Plant response rating, Ragweed",[12]; [28],35
same,"Plant response rating, Ragweed",[12]; [30],98
same,"Plant response rating, Sandbur",[13]; [16],15
same,"Plant response rating, Sandbur",[13]; [17],15
same,"Plant response rating, Sandbur",[13]; [18],20
same,"Plant response rating, Sandbur",[13]; [32],70
same,"Plant response rating, Sandbur",[13]; [19],30
same,"Plant response rating, Sandbur",[13]; [20],5
same,"Plant response rating, Sandbur",[13]; [21],10
same,"Plant response rating, Sandbur",[13]; [22],0
same,"Plant response rating, Sandbur",[13]; [23],15
same,"Plant response rating, Sandbur",[13]; [25],75
same,"Plant response rating, Soybean",[14]; [16],0
same,"Plant response rating, Soybean",[14]; [17],0
same,"Plant response rating, Soybean",[14]; [18],0
same,"Plant response rating, Soybean",[14]; [32],15
same,"Plant response rating, Soybean",[14]; [19],0
same,"Plant response rating, Soybean",[14]; [20],0
same,"Plant response rating, Soybean",[14]; [21],0
same,"Plant response rating, Soybean",[14]; [22],0
same,"Plant response rating, Soybean",[14]; [23],0
same,"Plant response rating, Soybean",[14]; [25],40
same,"Plant response rating, Velvetleaf",[15]; [26],60
same,"Plant response rating, Velvetleaf",[15]; [31],80
same,"Plant response rating, Velvetleaf",[15]; [27],0
same,"Plant response rating, Velvetleaf",[15]; [28],30
same,"Plant response rating, Velvetleaf",[15]; [30],90
